The text below walks through data of patent US20150183743A1, “COMPOUND AND USE OF COMPOUND TO PREPARE A RADIOLABELLED COMPOUND” (STICHTING VU-VUMC, priority 2012, published 2015).

The target in data set [1] is T1, ifenprodil binding site of NR2B subunit containing NMDA receptors (Rattus norvegicus, UniProt P35439+Q00960).
T1 construct: 400 μl of the membrane suspension, containing a total amount of 2.5 mg original wet weight of tissue; from tissue; host or cells: rat forebrain membranes
Put plainly: Competition binding assay against [3H]ifenprodil on rat forebrain membranes. The following applies: displacement of 5 nM [3H]ifenprodil; mean±SEM of 2-6 determinations in triplicate. How it is done:
Male Wistar rats (180-200 g) were killed by decapitation. The forebrains were rapidly removed and homogenized using a DUALL tissue homogenizer (10 strokes, 2000 rpm), in a 10-fold excess (v/w) of ice-cold 0.25 M sucrose. The nuclei and cell debris were removed by centrifugation (10 min×400×g), in a Beckman refrigerated ultracentrifuge (rotor 60Ti). The resulting pellet was rehomogenized in 5 vol 0.25 sucrose and recentrifuged. The combined supernatants were diluted in Tris-acetate buffer (50 mM, pH 7.4) to a final dilution of 40 v/w, and centrifuged for 30 min×200,000×g, in order to obtain membranes from the cell surface, mitochondrial, and microsomal fractions. The pellet was resuspended in 20 volumes of Tris-HCl+0.01% Triton buffer (pH 7.4), kept at 37° C. for 10 min, and recentrifuged. The final pellet was suspended in Tris-HCl buffer (dilution 5, pH 7.4), and stored at −80° C. in 5 ml aliquots. On the day of each experiment, membranes were thawed to room temperature and washed twice by centrifugation (30 min×200,000×g). After the final centrifugation, pellets were suspended in 80 volumes (v/w) of 50 mM Tris-HCl buffer (pH 7.4).
Competition binding experiments were carried out on ice, in a final volume of 500 μl assay buffer (50 mM Tris-HCl, pH 7.4), containing 5 μM GBR 12909 to block […] binding. The incubation mixture was composed of 400 μl of the membrane suspension, containing a total amount of 2.5 mg original wet weight of tissue, 50 μl of [^3H]ifenprodil, and 5 μl of unlabelled drug solution (final DMSO concentration: 1%). Nonspecific binding was determined in the presence of 10 μM Ro 25-6981. Incubations were terminated after 2 hr by filtration through 0.3% PEI-embedded Whatman GF/B filters, using a 48-well Brandel harvester. The filters were washed three times with 3 ml of ice cold Tris-HCl buffer (pH 7.4), and radioactivity was determined by liquid scintillation spectrometry in 5 ml of Optiphase-HiSafe 3, at an efficiency of 40%.
Ki values were determined by nonlinear regression analysis using the equation: log EC50=log [10̂log Ki*(1+RadioligandNM/HotKdNM)], (GraphPad Software Inc., San Diego, Calif.).

The target in data set [2] is T2, NR2B site of NMDA receptors (Mus musculus, UniProt P35438+Q01097).
T2 construct: from tissue; host or cells: mouse brain (sections in vitro; whole brain in vivo)
T2 sequence (Q01097 27-1482, other chains not shown): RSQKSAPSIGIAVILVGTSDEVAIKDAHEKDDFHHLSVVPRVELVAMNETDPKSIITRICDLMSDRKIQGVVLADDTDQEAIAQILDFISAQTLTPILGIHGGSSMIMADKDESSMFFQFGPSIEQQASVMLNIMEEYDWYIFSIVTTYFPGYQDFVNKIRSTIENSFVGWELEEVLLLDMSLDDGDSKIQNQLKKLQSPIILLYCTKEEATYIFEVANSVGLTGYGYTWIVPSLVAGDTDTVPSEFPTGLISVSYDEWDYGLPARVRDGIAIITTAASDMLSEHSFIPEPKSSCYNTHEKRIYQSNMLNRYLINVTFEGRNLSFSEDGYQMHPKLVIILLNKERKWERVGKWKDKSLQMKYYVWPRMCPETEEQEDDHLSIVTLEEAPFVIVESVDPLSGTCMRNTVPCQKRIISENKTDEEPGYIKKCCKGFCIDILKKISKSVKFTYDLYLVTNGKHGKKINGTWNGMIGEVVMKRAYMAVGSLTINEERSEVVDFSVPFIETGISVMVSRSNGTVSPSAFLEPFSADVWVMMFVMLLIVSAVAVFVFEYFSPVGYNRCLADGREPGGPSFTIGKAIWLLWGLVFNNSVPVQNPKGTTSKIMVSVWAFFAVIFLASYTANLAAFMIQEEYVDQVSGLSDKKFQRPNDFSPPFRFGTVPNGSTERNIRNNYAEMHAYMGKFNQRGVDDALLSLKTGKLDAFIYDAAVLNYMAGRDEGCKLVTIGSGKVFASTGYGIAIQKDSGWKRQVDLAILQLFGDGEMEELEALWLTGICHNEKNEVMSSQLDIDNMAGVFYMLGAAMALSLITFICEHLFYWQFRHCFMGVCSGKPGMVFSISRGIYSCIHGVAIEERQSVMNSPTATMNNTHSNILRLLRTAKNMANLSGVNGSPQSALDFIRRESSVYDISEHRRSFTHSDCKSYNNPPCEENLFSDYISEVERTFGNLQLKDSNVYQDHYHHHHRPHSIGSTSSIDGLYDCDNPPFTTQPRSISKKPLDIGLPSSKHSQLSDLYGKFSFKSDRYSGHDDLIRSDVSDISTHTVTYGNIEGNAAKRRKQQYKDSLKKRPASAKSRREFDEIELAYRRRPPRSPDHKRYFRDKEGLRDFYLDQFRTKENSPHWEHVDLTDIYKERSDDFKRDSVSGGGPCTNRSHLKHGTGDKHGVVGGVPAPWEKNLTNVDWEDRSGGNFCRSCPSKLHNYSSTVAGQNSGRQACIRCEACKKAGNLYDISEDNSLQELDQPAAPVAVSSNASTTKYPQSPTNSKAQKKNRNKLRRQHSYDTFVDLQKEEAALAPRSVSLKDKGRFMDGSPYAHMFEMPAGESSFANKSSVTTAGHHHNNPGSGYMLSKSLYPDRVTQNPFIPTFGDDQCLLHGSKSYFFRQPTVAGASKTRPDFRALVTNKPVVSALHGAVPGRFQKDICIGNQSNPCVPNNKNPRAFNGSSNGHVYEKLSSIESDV
Put plainly: Blocking of [11C]HC-242 brain uptake by Ro25-6981 in anaesthetized mice (ex vivo autoradiography). On the set-up: species or system B6C3F1/J mice. The following applies: for mean % change: blocked (Ro25-6981) vs unblocked. How it is done: 15 min after radiotracer injection, mice were killed by cervical dislocation, and the brains were removed, frozen in liquid nitrogen and processed for quantitative autoradiography. 20 μm coronal brain sections from control and Ro25-6981 treated mice were obtained at −21° C. in a Leica CM3050S cryostat (Leica Microsystems, Rijswijk, the Netherlands), and were immediately opposed to phosphor storage screens. The screens were read in a Storm™ 860 Phosphorimager on the following day, and the images obtained were analyzed using ImageQuant TL 8.1 software (GE Healthcare Europe GmbH, Diegem, Belgium). A series of immediately adjacent brain sections were opposed to Kodak Biomax MR-1 film, which was developed after overnight exposure, to obtain high resolution images. […] Analysis of radiotracer uptake in control and blocked mice across different brain regions was performed using two-way ANOVA.

Data set [3] deals with T2, NR2B site of NMDA receptors. Put plainly: In vitro autoradiography of [11C]HC-242 on mouse brain sections (non-specific: 1 μM Ro25-6981). The class given is binding, B6C3F1/J mice. As for the experimental part:
20 μm thick coronal brain sections were thawed from −20° C. to room temperature, pre-washed 2×10 min in assay buffer (50 mM Tris-HCl, pH 7.4), and dried. […] To determine non-specific binding, a series of immediately adjacent brain sections was incubated in the same buffer, in the presence of 1 μM Ro25-6981. Incubations were terminated by 1 min washing into ice-cold assay buffer (pH 7.4), followed by a rapid rinse in ice-cold demi water. The sections were then air dried and opposed overnight to Kodak BioMax MR-1 film, which was developed in Kodak D19 developer and fixed with Kodak rapid fixer (Sigma-Aldrich, Zwijndrecht, the Netherlands). […] Specific binding was quantified following the subtraction of […] binding images.

Data set [4] in a line: Determination of Log Doct,7.4. Format: physicochemical. As to conditions: 1-octanol / 0.2M phosphate buffer pH 7.4, room temperature, triplicate. How it is done: The distribution of the radio labelled compounds between 1-octanol and 0.2M phosphate buffer (pH=7.4) was measured in triplicate at room temperature. Briefly, 1 mL of a 20 MBq/mL solution of the radio labelled compound in 0.2M phosphate buffer (pH=7.4) was vigorously mixed with 1 mL of 1-octanol for 1 min at room temperature using a vortex. After a settling period of 30 min, five samples of 100 μL were taken from both layers. For determining recovery, 5 samples of 100 μL were taken from the 20 MBq/mL solution. All samples were counted for radioactivity. The Log Doct,7.4 value was calculated according to Log Doct,7.4=^10Log(Aoct/Abuffer), where Aoct and Abuffer represent the average radioactivity counted of the 5 1-octanol and 5 buffer samples, respectively.

Data set [5] in a line: Biodistribution of [11C]HC-242 in anaesthetized mice. Format: in vivo, B6C3F1/J mice. As for the experimental part:
Animals were anaesthetized with a 1:2:1 mixture of ffm [fentanyl/fluanisone (Hypnorm™; Vetapharma, Leeds, UK), sterile water, midazolam (Dormicum™; Actavis, Harnarfjordur, Iceland)]. The anaesthetic was administered intraperitoneally (11 ml/kg), 5 min prior to radiotracer administration. […] Following the injections, mice were killed by cervical dislocation at 5, 15, 30, or 60 min (n=4/time point). At each time point, blood was obtained by heart punctures and selected organs, including the heart, liver, kidneys, lungs and brain were removed. The brain was further dissected into frontal cortex, olfactory tubercle, striatum, cerebral cortex (bregma 1.70-0.02 mm), entorhinal cortex, hippocampus, hypothalamus, cerebellum, and pons/medulla oblongata. All organs and brain areas were weighed, and recovered radioactivity was determined in a 1282 Compugamma CS (LKB Wallac, Turku, Finland), using 5×10 μl aliquots of the injected formulation as standard. Results are expressed as the differential absorption ratio (DAR): (cpm recovered/g tissue)/(cpm injected/g body weight). Two-way repeated measures ANOVA, followed by Fisher's LSD post-hoc comparisons, was used for analysis of radiotracer uptake in different brain regions (or organs), at different time points.

Molecules are shown by their SMILES. Structures can show the parent of a compound that is named as a salt.

T1 sequence (Q00960 27-1482, other chains not shown): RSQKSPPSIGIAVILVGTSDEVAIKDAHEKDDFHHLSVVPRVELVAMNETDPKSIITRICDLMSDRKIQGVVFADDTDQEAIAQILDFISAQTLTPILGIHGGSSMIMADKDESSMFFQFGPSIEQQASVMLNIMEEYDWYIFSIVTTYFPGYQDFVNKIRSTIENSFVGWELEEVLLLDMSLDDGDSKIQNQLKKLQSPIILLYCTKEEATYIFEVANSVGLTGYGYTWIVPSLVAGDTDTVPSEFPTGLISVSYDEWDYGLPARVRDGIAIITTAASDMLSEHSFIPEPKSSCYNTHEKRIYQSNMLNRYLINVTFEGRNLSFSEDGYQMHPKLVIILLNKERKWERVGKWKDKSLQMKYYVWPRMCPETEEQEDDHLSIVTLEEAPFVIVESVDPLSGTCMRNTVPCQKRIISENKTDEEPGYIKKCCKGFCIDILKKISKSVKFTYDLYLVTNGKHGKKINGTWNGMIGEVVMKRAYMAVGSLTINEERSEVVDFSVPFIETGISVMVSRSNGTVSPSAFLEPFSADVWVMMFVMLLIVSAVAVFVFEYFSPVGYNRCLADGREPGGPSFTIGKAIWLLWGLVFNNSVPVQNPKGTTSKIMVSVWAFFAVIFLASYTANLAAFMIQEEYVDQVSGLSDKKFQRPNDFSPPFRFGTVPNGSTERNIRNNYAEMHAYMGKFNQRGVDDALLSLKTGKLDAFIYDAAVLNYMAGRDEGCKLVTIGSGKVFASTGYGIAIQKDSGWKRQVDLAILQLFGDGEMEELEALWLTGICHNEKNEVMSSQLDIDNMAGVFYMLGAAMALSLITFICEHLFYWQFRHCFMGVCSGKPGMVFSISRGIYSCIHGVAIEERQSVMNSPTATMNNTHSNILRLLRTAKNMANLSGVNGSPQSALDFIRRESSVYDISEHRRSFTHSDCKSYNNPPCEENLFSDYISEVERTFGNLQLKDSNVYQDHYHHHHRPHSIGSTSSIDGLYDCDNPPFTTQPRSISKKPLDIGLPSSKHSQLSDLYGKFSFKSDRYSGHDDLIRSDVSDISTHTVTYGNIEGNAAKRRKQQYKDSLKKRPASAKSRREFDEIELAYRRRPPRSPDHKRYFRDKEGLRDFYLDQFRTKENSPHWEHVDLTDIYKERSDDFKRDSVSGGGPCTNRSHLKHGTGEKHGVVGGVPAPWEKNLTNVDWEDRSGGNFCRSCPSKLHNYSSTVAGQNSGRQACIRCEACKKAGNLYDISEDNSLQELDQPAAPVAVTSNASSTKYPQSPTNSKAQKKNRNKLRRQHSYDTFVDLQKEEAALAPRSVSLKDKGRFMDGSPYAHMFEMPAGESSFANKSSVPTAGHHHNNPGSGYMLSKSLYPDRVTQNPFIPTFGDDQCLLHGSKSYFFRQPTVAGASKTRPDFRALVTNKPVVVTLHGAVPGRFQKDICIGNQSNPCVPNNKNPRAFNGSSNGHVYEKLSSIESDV

In data set [1], `FCOc1cc(F)ccc1-c1cncc(CNC2CCCC2)c1` [Example 6, N-((5-(4-fluoro-2-(fluoromethoxy)phenyl)pyridin-3-yl)methyl)cyclopentanamine dihydrochloride] displayed a Ki of 15.4 ± 1.3 nM.

For the compound `COc1cc(F)ccc1-c1cncc(CNCC2CC2)c1` [Example 2, 1-cyclopropyl-N-((5-(4-fluoro-2-methoxyphenyl)pyridin-3-yl)methyl)methanamine dihydrochloride], in data set [1], affinity was put at a Ki of 8.7 ± 1.2 nM.

Regarding `Fc1ccc(-c2cccc(CNC3CCCC3)c2)cc1` [Example 11, N-((4′-fluoro-[1,1′-biphenyl]-3-yl)methyl)cyclopentanamine hydrochloride], the Ki in data set [1] was found to be 13.1 ± 1.8 nM.

`Fc1ccc(-c2cncc(CNC3CCCC3)c2)cc1` [Example 10, N-((5-(4-fluorophenyl)pyridin-3-yl)methyl)cyclopentanamine dihydrochloride] gave a Ki in data set [1] of 3.3 ± 1.9 nM.

As for `Fc1ccc(-c2cncc(CNCC3CC3)c2)cc1` [Example 12, 1-cyclopropyl-N-((5-(4-fluorophenyl)pyridin-3-yl)methyl)methanamine dihydrochloride], in data set [1], the Ki was 2.9 ± 0.3 nM.

In the case of `COc1cc(F)ccc1-c1cccc(CNCC2CC2)c1` [Example 4, 1-cyclopropyl-N-((4′-fluoro-2′-methoxy-[1,1′-biphenyl]-3-yl)methyl)methanamine hydrochloride], in data set [1], affinity was put at a Ki of 67.7 ± 8.1 nM.

Take `[11CH3]Oc1cc(F)ccc1-c1cncc(CNC2CCCC2)c1` [[^11C]HC-242, N-((5-(4-fluoro-2-^11C-methoxyphenyl)pyridin-3-yl)methyl)cyclopentanamine]: the mean % change is −22.5% in data set [2] (Experiment No 1, [11C]HC-242 23.7 μM at t0); −21.9% in data set [2] (Experiment No 2, [11C]HC-242 2.6 μM at t0); 33.3% in data set [2] (Experiment No 3, [11C]HC-242 14.6 μM at t0). Moreover, the “mean decrease in radioactivity uptake induced by Ro25-6981” value in data set [2] (Ro25-6981 10.0 mg/kg i.p. pretreatment, across all brain regions, pairs showing decrease) came out at 22.3±1.9%. Also, in data set [2] (Ro25-6981 10.0 mg/kg i.p. pretreatment, across all brain regions, pairs showing increase), the “mean increase in radioactivity uptake induced by Ro25-6981” value is reported as 29.4±4.2%. In addition, the “mean percentage of specific binding” value in data set [3] (across all brain regions analyzed) is recorded as 24.0±3.5%. Also, the Specific labelling entry is “high” in data set [3] (cerebral cortex, hippocampus, olfactory tubercle, striatum); “absent” in data set [3] (subthalamic brain regions); “low” in data set [3] (thalamus). For the same compound, the “percentage of specific binding” value in data set [3] (olfactory tubercle) amounted to 39.6±10.4%; in data set [3] (thalamus), 3.3±2.1%. Further, the logD in data set [4] is 2.14 ± 0.02. Also, the DAR in data set [5] (blood, 5 min) is given as 0.04±0.01; in data set [5] (cerebellum, 15 min) it was 0.14±0.01; in data set [5] (cerebral cortex, 15 min) it was 0.25±0.03; in data set [5] (entorhinal cortex, 15 min), 0.62±0.22; in data set [5] (frontal cortex, 15 min), 0.26±0.02; in data set [5] (heart, 5 min), 0.19±0.04. The DAR in data set [5] (hippocampus, 15 min) came out at 0.33±0.03; in data set [5] (liver, 5 min), 0.15±0.05; in data set [5] (pons/medulla oblongata, 15 min) it was 0.14±0.02; in data set [5] (striatum, 15 min), 0.24±0.03.

Consider `FCCOc1cc(F)ccc1-c1cncc(CNC2CCCC2)c1` [Example 7, N-((5-(4-fluoro-2-(2-fluoroethoxyl)phenyl)pyridin-3-yl)methyl)cyclopentanamine dihydrochloride], for which affinity in data set [1] was put at a Ki of 156 ± 21.8 nM.

In turn, `Oc1cc(F)ccc1-c1cncc(CNC2CCCC2)c1` [Example 5, 2-(5-((cyclopentylamino)methyl)pyridin-3-yl)-5-fluorophenol] displayed a Ki in data set [1] of 1300 ± 600 nM.
